Source: the NIST ThermoML archive (doi:10.1021/je700260f)

Details: Liquid, Vibrating tube method

FC(C(F)(F)F)C(F)(F)F [1,1,1,2,3,3,3-heptafluoropropane]
Details | mass density [kg/m3]
333.16 K, 17241 kPa | 1375.9
333.16 K, 17263 kPa | 1376.1
333.16 K, 17300 kPa | 1376.3
333.16 K, 17322 kPa | 1376.4
333.16 K, 17351 kPa | 1376.5
333.16 K, 17370 kPa | 1376.8
333.16 K, 17482 kPa | 1377.4
333.16 K, 17509 kPa | 1377.4
333.16 K, 17532 kPa | 1377.7
333.16 K, 17563 kPa | 1377.9
333.16 K, 17589 kPa | 1378
333.16 K, 17619 kPa | 1378.1
333.16 K, 17654 kPa | 1378.4
333.16 K, 17680 kPa | 1378.6
333.16 K, 17707 kPa | 1378.7
333.16 K, 17741 kPa | 1378.9
333.16 K, 17766 kPa | 1379.1
333.16 K, 17788 kPa | 1379.2
333.16 K, 17814 kPa | 1379.3
333.16 K, 17848 kPa | 1379.5
333.16 K, 17875 kPa | 1379.6
333.16 K, 18144 kPa | 1381.2
333.16 K, 18172 kPa | 1381.4
333.16 K, 18199 kPa | 1381.6
333.16 K, 18229 kPa | 1381.8
333.16 K, 18263 kPa | 1382
333.16 K, 18289 kPa | 1382
333.16 K, 18321 kPa | 1382.2
333.16 K, 18352 kPa | 1382.4
333.16 K, 18378 kPa | 1382.7
333.16 K, 18409 kPa | 1382.9
333.16 K, 18440 kPa | 1382.9
333.16 K, 18582 kPa | 1383.6
333.16 K, 18605 kPa | 1383.8
333.16 K, 18633 kPa | 1384.2
333.16 K, 18653 kPa | 1384.2
333.16 K, 18684 kPa | 1384.3
333.16 K, 18715 kPa | 1384.6
333.16 K, 18741 kPa | 1384.6
333.16 K, 18777 kPa | 1384.9
333.16 K, 18809 kPa | 1385.1
333.16 K, 18836 kPa | 1385.3
333.16 K, 18859 kPa | 1385.4
333.16 K, 18889 kPa | 1385.6
333.16 K, 18924 kPa | 1385.8
333.16 K, 18951 kPa | 1385.8
333.16 K, 18974 kPa | 1385.9
333.16 K, 19009 kPa | 1386.3
333.16 K, 19047 kPa | 1386.4
333.16 K, 19071 kPa | 1386.6
333.16 K, 19105 kPa | 1386.7
333.16 K, 19128 kPa | 1386.7
333.16 K, 19166 kPa | 1387
333.16 K, 19192 kPa | 1387.1
333.16 K, 19220 kPa | 1387.4
333.16 K, 19248 kPa | 1387.5
333.16 K, 19286 kPa | 1387.9
333.16 K, 19310 kPa | 1387.8
333.16 K, 19346 kPa | 1388
333.16 K, 19381 kPa | 1388.3
333.16 K, 19409 kPa | 1388.4
333.16 K, 19445 kPa | 1388.6
333.16 K, 19468 kPa | 1388.8
333.16 K, 19716 kPa | 1390.1
333.16 K, 19745 kPa | 1390.3
333.16 K, 19776 kPa | 1390.5
333.16 K, 19803 kPa | 1390.5
333.16 K, 19831 kPa | 1390.7
333.16 K, 19870 kPa | 1391
333.16 K, 19894 kPa | 1391
333.16 K, 19927 kPa | 1391.2
333.16 K, 19959 kPa | 1391.4
333.16 K, 19987 kPa | 1391.6
333.16 K, 20022 kPa | 1391.8
333.16 K, 20050 kPa | 1391.9
333.16 K, 20077 kPa | 1392
333.16 K, 20115 kPa | 1392.3
333.16 K, 20146 kPa | 1392.4
333.16 K, 20174 kPa | 1392.5
333.16 K, 20207 kPa | 1392.8
333.16 K, 20238 kPa | 1392.9
333.16 K, 20266 kPa | 1393.1
333.16 K, 20294 kPa | 1393.3
333.16 K, 20328 kPa | 1393.5
333.16 K, 20352 kPa | 1393.5
333.16 K, 20393 kPa | 1393.9
333.16 K, 20421 kPa | 1393.8
333.16 K, 20453 kPa | 1394.1
333.16 K, 20487 kPa | 1394.3
333.16 K, 20512 kPa | 1394.4
333.16 K, 20545 kPa | 1394.6
333.16 K, 20579 kPa | 1394.8
333.16 K, 20612 kPa | 1395
333.16 K, 20640 kPa | 1395.1
333.16 K, 20661 kPa | 1395.4
333.16 K, 20682 kPa | 1395.2
333.16 K, 20713 kPa | 1395.4
333.16 K, 21425 kPa | 1399.3
333.16 K, 21458 kPa | 1399.4
333.16 K, 21479 kPa | 1399.5
333.16 K, 21507 kPa | 1399.6
333.16 K, 21537 kPa | 1399.9
333.16 K, 21562 kPa | 1399.9
333.16 K, 21595 kPa | 1400.1
333.16 K, 21615 kPa | 1400.2
333.16 K, 21797 kPa | 1401.1
333.16 K, 21860 kPa | 1401.5
333.16 K, 21957 kPa | 1401.9
333.16 K, 21990 kPa | 1402
333.16 K, 22016 kPa | 1402.3
333.16 K, 22042 kPa | 1402.3
333.16 K, 22082 kPa | 1402.5
333.16 K, 22116 kPa | 1402.8
333.16 K, 22154 kPa | 1402.9
333.16 K, 22183 kPa | 1403.1
333.16 K, 22220 kPa | 1403.2
333.16 K, 22249 kPa | 1403.6
333.16 K, 22279 kPa | 1403.5
333.16 K, 22309 kPa | 1403.8
333.16 K, 22335 kPa | 1403.8
333.16 K, 22370 kPa | 1404.1
333.16 K, 22404 kPa | 1404.2
333.16 K, 22435 kPa | 1404.3
333.16 K, 22473 kPa | 1404.6
333.16 K, 22511 kPa | 1404.8
333.16 K, 22537 kPa | 1404.9
333.16 K, 22575 kPa | 1405.2
333.16 K, 22605 kPa | 1405.3
333.16 K, 22642 kPa | 1405.4
333.16 K, 22672 kPa | 1405.6
333.16 K, 22698 kPa | 1405.8
333.16 K, 22736 kPa | 1405.9
333.16 K, 22762 kPa | 1406.1
333.16 K, 22980 kPa | 1407.1
333.16 K, 23011 kPa | 1407.2
333.16 K, 23037 kPa | 1407.4
333.16 K, 23068 kPa | 1407.5
333.16 K, 23104 kPa | 1407.9
333.16 K, 23133 kPa | 1407.8
333.16 K, 23162 kPa | 1408
333.16 K, 23193 kPa | 1408.1
333.16 K, 23228 kPa | 1408.3
333.16 K, 23254 kPa | 1408.5
333.16 K, 23297 kPa | 1408.8
333.16 K, 23324 kPa | 1408.8
333.16 K, 23358 kPa | 1409
333.16 K, 23425 kPa | 1409.3
333.16 K, 23453 kPa | 1409.5
333.16 K, 23480 kPa | 1409.5
333.16 K, 23515 kPa | 1409.6
333.16 K, 23559 kPa | 1410
333.16 K, 23594 kPa | 1410.2
333.16 K, 23633 kPa | 1410.3
333.16 K, 23662 kPa | 1410.4
333.16 K, 23693 kPa | 1410.4
333.16 K, 23728 kPa | 1410.8
333.16 K, 23763 kPa | 1411
333.16 K, 23795 kPa | 1411
333.16 K, 23823 kPa | 1411.3
333.16 K, 23890 kPa | 1411.6
333.16 K, 23921 kPa | 1411.7
333.16 K, 23957 kPa | 1411.9
333.16 K, 23993 kPa | 1412
333.16 K, 24020 kPa | 1412.2
333.16 K, 24055 kPa | 1412.4
333.16 K, 24089 kPa | 1412.4
333.16 K, 24110 kPa | 1412.7
333.16 K, 24140 kPa | 1412.7
333.16 K, 24184 kPa | 1413
333.16 K, 24206 kPa | 1413.1
333.16 K, 24242 kPa | 1413.2
333.16 K, 24269 kPa | 1413.3
333.16 K, 24304 kPa | 1413.6
333.16 K, 24333 kPa | 1413.8
333.16 K, 24369 kPa | 1413.7
333.16 K, 24396 kPa | 1414
333.16 K, 24436 kPa | 1414.2
333.16 K, 24468 kPa | 1414.3
333.16 K, 24500 kPa | 1414.4
333.16 K, 24531 kPa | 1414.6
333.16 K, 24558 kPa | 1414.7
333.16 K, 24594 kPa | 1414.9
333.16 K, 24621 kPa | 1415.1
333.16 K, 24657 kPa | 1415.2
333.16 K, 24688 kPa | 1415.3
333.16 K, 24720 kPa | 1415.5
333.16 K, 24751 kPa | 1415.7
333.16 K, 24782 kPa | 1415.8
333.16 K, 24810 kPa | 1415.9
333.16 K, 24838 kPa | 1416
333.16 K, 24869 kPa | 1416
333.16 K, 24910 kPa | 1416.4
333.16 K, 24944 kPa | 1416.5
333.16 K, 24980 kPa | 1416.7
333.16 K, 25007 kPa | 1416.8
333.16 K, 25039 kPa | 1417.1
333.16 K, 25088 kPa | 1417.1
333.16 K, 25111 kPa | 1417.2
333.17 K, 17403 kPa | 1376.8
333.17 K, 17429 kPa | 1376.9
333.17 K, 17457 kPa | 1377.4
333.17 K, 18467 kPa | 1383.1
333.17 K, 18490 kPa | 1383
333.17 K, 18517 kPa | 1383.4
333.17 K, 18552 kPa | 1383.6
333.17 K, 23382 kPa | 1409
